The text below walks through data of ChEMBL document CHEMBL1201862, “PubChem BioAssay data set” (2004).

Molecules are shown by their SMILES.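 Cells were grown in 96-well plates and exposed to each compound for 48 hours at five concentrations; endpoints were interpolated linearly between bracketing concentrations, or set to the highest concentration if not reached. GI50 is the concentration that inhibits growth by half.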 Active and inactive are the calls of the source. Cut-off read from the data, not from the text of the source: active = GI50 up to about 1.1 µM and inactive = higher.

Holding throughout (experiment): NCI tumour cell line growth inhibition, 48 h
Experiment [1] relates to A498.
Experiment [2] relates to DU-145.
Experiment [3] concerns HCT-116.
Experiment [4] relates to HCT-15.
Experiment [5] deals with HOP-62.
In experiment [6] the test system is HOP-92.
Experiment [7] has as its system HT-29.
Experiment [8] relates to K562.
Experiment [9] concerns MDA-MB-435.
For experiment [10], the system named is NCI-H226.
Experiment [11] has as its system OVCAR-3.
The test system of experiment [12] is OVCAR-5.
Experiment [13] deals with OVCAR-8.
Experiment [14] relates to PC-3.
Experiment [15] has as its system SF-295.
Experiment [16] deals with SK-MEL-2.
For experiment [17], the system named is SK-OV-3.
Experiment [18] deals with UACC-62.
The test system of experiment [19] is UO-31.
The test system of experiment [20] is TK-10.

As to `CCC(=O)Nc1ccc(N2C(=O)C(Cl)C2c2ccc(SC)cc2)cc1` (stereo unspecified), the GI50 in [1] was > 100 µM (inactive); in experiment [2] it was > 100 µM (inactive); in [3], > 100 µM (inactive); in experiment [4], 98.2 µM; in experiment [5], 61.7 µM (inactive); in [6], > 100 µM (inactive). The GI50 in experiment [7] is > 100 µM (inactive); in experiment [8] it was 72.9 µM (inactive); in experiment [9], 63.7 µM (inactive); in experiment [10] it was 31.5 µM (inactive); in experiment [11], 81.5 µM (inactive); in [12], 97.5 µM (inactive). In addition, the GI50 in experiment [13] is > 100 µM (inactive); in experiment [14], > 100 µM (inactive); in experiment [15], > 100 µM (inactive); in experiment [16] it was 65 µM (inactive); in [17], > 100 µM (inactive); in [18], > 100 µM (inactive). Further, in [19], the GI50 was > 100 µM (inactive).
As to `CC(=O)OC1C2CCC1C1C2N=NN1c1ccc([N+](=O)[O-])cc1` (stereo unspecified), the GI50 in experiment [1] is > 100 µM (inactive); in [2], > 100 µM (inactive); in experiment [3], > 100 µM (inactive); in experiment [4] it was above 100 µM; in experiment [5], > 100 µM (inactive); in experiment [6] it was > 100 µM (inactive). Besides, the GI50 in [7], in experiment [9], in [10], in experiment [11], in experiment [12] and in [13] was > 100 µM (inactive) in each case. For the same compound, the GI50 in [14], in experiment [15], in experiment [16], in experiment [17], in experiment [20] and in experiment [18] was > 100 µM (inactive) throughout. The GI50 in experiment [19] is > 100 µM (inactive).
Take `CC(C)(Br)C(=O)C(Br)Br`: the GI50 was > 39.8 µM (inactive) in [1]; 33.7 µM (inactive) in experiment [2]; 4.26 µM (inactive) in experiment [3]; > 42.3 µM (inactive) in [5]; 1.7 µM (inactive) in experiment [6]; 8.17 µM (inactive) in experiment [7]. The GI50 is 2.95 µM (inactive) in [8]; 5.58 µM (inactive) in experiment [9]; 16.7 µM (inactive) in [10]; 6.89 µM (inactive) in [11]; 16.8 µM (inactive) in experiment [12]; 5.27 µM (inactive) in [13]. Moreover, the GI50 in experiment [14] was 5.4 µM (inactive); in experiment [15], 18.7 µM (inactive); in [16], 13 µM (inactive); in [17], 17.5 µM (inactive); in experiment [20] it was 9.04 µM (inactive); in experiment [18], 10.5 µM (inactive). Also, in [19], the GI50 is 17.5 µM (inactive).
Turning to `COc1cc(C)c(/C=C/C(=O)N2C(=O)OC[C@@H]2c2ccccc2)c(C)c1`, the GI50 was 52.5 µM (inactive) in experiment [1]; 37.6 µM (inactive) in experiment [2]; 89.3 µM (inactive) in experiment [3]; 74 µM in experiment [4]; > 100 µM (inactive) in experiment [5]; > 100 µM (inactive) in experiment [6]. Besides, the GI50 in experiment [7] was 18.6 µM (inactive); in experiment [8], 78.9 µM (inactive); in [9], > 100 µM (inactive); in [10] it was > 100 µM (inactive); in [11], > 100 µM (inactive); in experiment [12], > 100 µM (inactive). Besides, the GI50 was 40.2 µM (inactive) in [13]; 50.4 µM (inactive) in experiment [14]; > 100 µM (inactive) in experiment [15]; > 100 µM (inactive) in experiment [16]; > 100 µM (inactive) in [17]; > 100 µM (inactive) in experiment [20]. The GI50 in experiment [19] is > 100 µM (inactive).
As for `N#CCCN(CCC#N)c1ccc(C(=N/c2ccc(F)cc2)/N=N/c2ccc(Cl)cc2)cc1`, the GI50 in experiment [1] was > 100 µM (inactive); in experiment [2], > 100 µM (inactive); in [3] it was > 100 µM (inactive); in experiment [4], above 100 µM; in experiment [5] it was > 100 µM (inactive); in experiment [6], > 100 µM (inactive). In addition, the GI50 in experiment [7], in experiment [8], in experiment [9], in experiment [10], in experiment [11] and in experiment [12] was > 100 µM (inactive) in each case. Moreover, the GI50 in experiment [13], in [14], in experiment [15], in [17], in experiment [20] and in experiment [18] was > 100 µM (inactive) throughout. The GI50 in [19] was > 100 µM (inactive).
`COC(=O)NC(C(F)(F)F)(C(F)(F)F)P1(=O)OCCCO1`: the GI50 in experiment [1] was 17 µM (inactive); in experiment [2] it was 53.8 µM (inactive); in [3], 23.2 µM (inactive); in experiment [4], 22.8 µM; in experiment [5] it was 21.6 µM (inactive); in experiment [6], 35.8 µM (inactive). Moreover, the GI50 is 23.8 µM (inactive) in experiment [7]; 22.9 µM (inactive) in experiment [8]; 17.2 µM (inactive) in [9]; 16.2 µM (inactive) in experiment [10]; 28.3 µM (inactive) in [11]; 26.1 µM (inactive) in experiment [12]. For the same compound, the GI50 in experiment [13] was 27.3 µM (inactive); in [14], 25.4 µM (inactive); in experiment [15], 23.7 µM (inactive); in experiment [17], 18.9 µM (inactive); in experiment [20] it was 37.4 µM (inactive); in [18] it was 15 µM (inactive). Also, the GI50 in experiment [19] is 18.3 µM (inactive).
In the case of `N/N=c1\[nH]c2ccccc2o1`, the GI50 is > 100 µM (inactive) in [1]; > 100 µM (inactive) in [2]; 80 µM (inactive) in [3]; 77.3 µM in [4]; > 100 µM (inactive) in experiment [6]; > 100 µM (inactive) in [7]. Also, the GI50 in experiment [8] was 89.7 µM (inactive); in [9], > 100 µM (inactive); in experiment [10], > 100 µM (inactive); in [12], > 100 µM (inactive); in [13], 64.6 µM (inactive); in [14], > 100 µM (inactive). Further, the GI50 in experiment [16] is > 100 µM (inactive); in experiment [20], > 100 µM (inactive); in [18], > 100 µM (inactive); in [19], 93.5 µM (inactive).
For the compound `OC[C@H]1CC(c2nn[nH]n2)[C@H](O)[C@@H]1O` (stereo partly specified), the GI50 in experiment [1] was > 100 µM (inactive); in experiment [2], > 100 µM (inactive); in [3] it was > 100 µM (inactive); in experiment [4] it was above 100 µM; in experiment [5], > 100 µM (inactive); in [6] it was > 100 µM (inactive). Further, the GI50 in experiment [7], in [8], in experiment [9], in experiment [10], in experiment [11] and in experiment [12] was > 100 µM (inactive) each time. Besides, the GI50 in experiment [13] is > 100 µM (inactive); in experiment [14], > 100 µM (inactive); in [15], > 100 µM (inactive); in experiment [17], > 100 µM (inactive); in [20] it was > 100 µM (inactive); in experiment [18], > 10 µM (inactive). For the same compound, the GI50 in [19] was > 100 µM (inactive).
On to `CN(C)c1ccc(/C=C2\N=C(N/N=C/c3ccc(N(C)C)cc3)NC2=O)cc1`, for which the GI50 in [1] is 26.8 µM (inactive); in experiment [2], 28.1 µM (inactive); in experiment [3] it was > 100 µM (inactive); in experiment [4] it was 30.8 µM; in [5], > 100 µM (inactive); in experiment [6], 25.5 µM (inactive). Also, the GI50 is 42.7 µM (inactive) in experiment [7]; > 100 µM (inactive) in experiment [9]; > 100 µM (inactive) in [10]; 50.9 µM (inactive) in experiment [11]; > 100 µM (inactive) in experiment [12]; 24.8 µM (inactive) in experiment [13]. Further, the GI50 in experiment [14] is > 100 µM (inactive); in [15], 58.2 µM (inactive); in experiment [16], > 100 µM (inactive); in [17], > 100 µM (inactive); in experiment [20], > 100 µM (inactive); in experiment [18], > 100 µM (inactive). The GI50 in experiment [19] was > 100 µM (inactive).
Consider `CC1=C(C(=O)c2ccccc2)C23C(=O)N(c4ccccc4)C(=O)C2=C(O)C=CC3(O)N1` (stereo unspecified), for which the GI50 in experiment [1] is 40 µM (inactive); in [2] it was 44.1 µM (inactive); in experiment [3], 37.9 µM (inactive); in experiment [4], 24.6 µM; in [5], 32.5 µM (inactive); in [6], 17.5 µM (inactive). Besides, the GI50 is 13.6 µM (inactive) in [7]; 10.9 µM (inactive) in experiment [8]; 40 µM (inactive) in [9]; 35 µM (inactive) in experiment [10]; 21.4 µM (inactive) in experiment [11]; 47.2 µM (inactive) in experiment [12]. Also, the GI50 was 34 µM (inactive) in experiment [13]; 28.4 µM (inactive) in experiment [14]; 43.4 µM (inactive) in experiment [15]; 21 µM (inactive) in experiment [16]; 67.1 µM (inactive) in experiment [20]; 20.1 µM (inactive) in experiment [18]. Further, in experiment [19], the GI50 is 12.2 µM (inactive).
For `CNC(=O)c1cc(NC(=O)N(CCC#N)CCN(C(=O)N[C@@H](Cc2ccccc2)C(=O)N[C@@H](CC(C)C)C(=O)NC)c2ccccc2)ccc1OC`, the GI50 is > 49.5 µM (inactive) in experiment [1]; > 54.8 µM (inactive) in experiment [2]; > 63.7 µM (inactive) in [3]; above 100 µM in experiment [4]; > 100 µM (inactive) in [5]; 20.9 µM (inactive) in [6]. The GI50 in experiment [7] is > 100 µM (inactive); in experiment [9] it was > 100 µM (inactive); in experiment [10] it was > 100 µM (inactive); in experiment [11] it was > 65.8 µM (inactive); in experiment [12] it was > 100 µM (inactive); in experiment [13] it was > 91.2 µM (inactive). In addition, the GI50 in experiment [14] is > 80 µM (inactive); in experiment [15], > 79.3 µM (inactive); in experiment [16], 31.8 µM (inactive); in [17], > 100 µM (inactive); in experiment [20], > 72.6 µM (inactive); in [18], 23.2 µM (inactive). The GI50 in experiment [19] was > 52 µM (inactive).
